Measurements taken from publication PMC6277767, “Broad and Region-Specific Impacts of the Synthetic Cannabinoid CP 55,940 in Adolescent and Adult Female Mouse Brains” (Frontiers in Molecular Neuroscience, 2018).

Test system: CD1 female mouse brain lipidome
Test: Brain-region lipid levels (HPLC/MS/MS lipidomics) 2 h after single i.p. 3 mg/kg CP 55,940 vs vehicle
Format: in vivo
Description: The Bloomington Institutional Animal Care and Use Committee of Indiana University reviewed and approved the animal procedures. Female mice from the CD1 strain were utilized to match our study examining THC’s effects on the brain lipidome ([Leishman et al., 2018]). Mice were given a single i.p. injection of either 3 mg/kg CP or 1:1:18 cremophor:ethanol:saline vehicle (please refer to the section “3 mg/kg CP Is Relevant for Synthetic Cannabinoid Abuse and Has Stronger Effects on the Female Mouse Brain Lipidome During Adolescence” for a justification of dose and use of female mice). Three different age groups were given injections: PND 35 and PND 50 adolescents, and adult mice (PND 113). At least eight mice in each age group received CP and at least eight received vehicle. Matching the THC study time course ([Leishman et al., 2018]), mice were sacrificed via rapid decapitation 2 h after injection. Brains were immediately removed and flash-frozen in liquid nitrogen, and then stored at -80°C until dissections were performed. Brains were dissected on an ice-cold dissection plate into the following regions: STR, HIPP, CER, THAL, CTX, HYP, MID, and STEM. These abbreviations for these brain areas will be used exclusively when discussing the results generated by these specific dissections. Each dissected area was immediately placed in liquid nitrogen and then stored at -80°C until used for lipid extraction.
Tissue extracts were performed as previously described ([Bradshaw et al., 2006]; [Stuart et al., 2013]; [Raboune et al., 2014]; [Leishman et al., 2016a],[b], [2017], [2018]). First, samples were shock frozen in liquid nitrogen, weighed, and transferred to a centrifuge tube. The mass of the largest sample was multiplied by 50 to determine how many milliliters of HPLC-grade methanol (Fisher, Fair Lawn, NJ, United States) to add. Then, samples were spiked with 500 pmol deuterium-labeled NAGly (d8NAGly; Cayman Chemical, Ann Arbor, MI, United States). Samples were placed on ice in darkness for 2 h then individually homogenized and centrifuged at 19,000 × g for 20 min at 20°C. Supernatants were diluted with HPLC water (purified in house) to make a solution of 75% water, 25% supernatant. Lipids were partially purified on C18 solid phase extraction columns (Agilent, Palo Alto, CA, United States). A series of four elutions with 1.5 mL of 60%, 75%, 85%, and 100% methanol were collected ([Stuart et al., 2013]; [Leishman et al., 2016a],[b], [2018]).
As previously described ([Bradshaw et al., 2006]; [Tan et al., 2006]; [Smoum et al., 2010]; [Stuart et al., 2013]; [Tortoriello et al., 2013]; [Raboune et al., 2014]; [Leishman et al., 2016a],[b], [2017], [2018]), samples were analyzed using an Applied Biosystems API 3000 triple quadrupole mass spectrometer with electrospray ionization (Foster City, CA, United States). Using an Agilent XDB-C18 reversed phase analytical column and optimized mobile phase gradients, 20 μL from each elution were chromatographed. Two Shimadzu 10ADvp pumps (Columbia, MD, United States) provided the pressure for gradient elution. Mobile phase A: 20% methanol, 80% water (v/v) and 1 mM ammonium acetate (Sigma, St. Louis, MO, United States). Mobile phase B: 100% methanol, 1 mM ammonium acetate. Every method run began with 0% mobile phase B, reached 100% mobile phase B flowing at 0.2 mL/min, and gradually returned to 0% mobile phase B.
This screening library will be referred to as the lipidome when discussing data from this study. HPLC/MS/MS data were analyzed using Analyst software (Applied Biosystems) ([Bradshaw et al., 2006]; [Tan et al., 2006]; [Stuart et al., 2013]; [Tortoriello et al., 2013]; [Raboune et al., 2014]; [Leishman et al., 2016a],[b], [2017], [2018]). Chromatograms (Supplementary Figure 3) were generated by determining the retention time of analytes from the analytical column with a [M-1] or [M+1] parent peak and a fragmentation peak corresponding to the programmed values. […]

[1] = adult midbrain, 3mg/kg CP 55,940, p .049
[2] = adult midbrain, 3mg/kg CP 55,940, p .055
[3] = adult midbrain, 3mg/kg CP 55,940, p .060
[4] = adult midbrain, 3mg/kg CP 55,940, p .063
[5] = adult midbrain, 3mg/kg CP 55,940, p .073
[6] = adult midbrain, 3mg/kg CP 55,940, p .087
[7] = adult midbrain, 3mg/kg CP 55,940, p .098
[8] = brainstem, PND35, 3 mg/kg CP 55,940 vs Veh
[9] = brainstem, PND35 female mice, 3mg/kg CP 55,940, mean
[10] = brainstem, PND 50, 3 mg/kg CP 55,940

CCCCCCC(C)(C)c1ccc([C@@H]2C[C@H](O)CC[C@H]2CCCO)c(O)c1 [CP 55,940]
PGE2 Direction (relative to Veh) [1]: ↑
PGE2 Magnitude (x Veh level) [1]: 1.17
6-ketoPGF1α Direction (relative to Veh) [2]: ↑
6-ketoPGF1α Magnitude (x Veh level) [2]: 1.29
N-arachidonoyl ethanolamine, Direction (relative to Veh) [3]: ↓
N-arachidonoyl ethanolamine, Magnitude (x Veh level) [3]: 0.78
N-linoleoyl glycine Direction (relative to Veh) [4]: ↓
N-linoleoyl glycine Magnitude (x Veh level) [4]: 0.52
N-stearoyl ethanolamine direction (relative to Veh) [5]: ↑
N-stearoyl ethanolamine magnitude (x Veh level) [5]: 1.44
N-linoleoyl serine Direction (relative to Veh) [6]: ↓
N-linoleoyl serine Magnitude (x Veh level) [6]: 0.79
N-arachidonoyl serine Direction (relative to Veh) [7]: ↓
N-arachidonoyl serine Magnitude (x Veh level) [7]: 0.53
changes in lipid levels that were decreases (adult, eight regions): 78
2-arachidonoyl glycerol, Direction (relative to Veh) [8]: ↓
2-arachidonoyl glycerol, Magnitude (x Veh level) [8]: 0.81 x Veh level
2-linoleoyl glycerol Direction (relative to Veh) [8]: ↓
2-linoleoyl glycerol Magnitude (x Veh level) [8]: 0.82 x Veh level
N-arachidonoyl GABA Direction (relative to Veh) [8]: ↓
N-arachidonoyl GABA Magnitude (x Veh level) [8]: 0.70 x Veh level
N-arachidonoyl taurine Direction (relative to Veh) [8]: ↓
N-arachidonoyl taurine Magnitude (x Veh level) [8]: 0.89 x Veh level
N-docosahexaenoyl leucine Direction (relative to Veh) [8]: ↑
N-docosahexaenoyl leucine Magnitude (x Veh level) [8]: 1.37 x Veh level
N-docosahexaenoyl valine Direction (relative to Veh) [8]: ↑
N-docosahexaenoyl valine Magnitude (x Veh level) [8]: 1.56 x Veh level
N-oleoyl leucine Direction (relative to Veh) [8]: ↑
N-oleoyl leucine Magnitude (x Veh level) [8]: 1.15 x Veh level
N-oleoyl proline Direction (relative to Veh) [8]: ↑
N-oleoyl proline Magnitude (x Veh level) [8]: 1.16 x Veh level
N-oleoyl valine Direction (relative to Veh) [8]: ↑
N-oleoyl valine Magnitude (x Veh level) [8]: 1.26 x Veh level
N-palmitoyl leucine, Direction (relative to Veh) [8]: ↑
N-palmitoyl leucine, Magnitude (x Veh level) [8]: 1.38 x Veh level
N-palmitoyl phenylalanine Direction (relative to Veh) [8]: ↑
N-palmitoyl phenylalanine Magnitude (x Veh level) [8]: 1.22 x Veh level
N-palmitoyl proline Direction (relative to Veh) [8]: ↑
N-palmitoyl proline Magnitude (x Veh level) [8]: 1.20 x Veh level
N-palmitoyl tryptophan Direction (relative to Veh) [8]: ↓
N-palmitoyl tryptophan Magnitude (x Veh level) [8]: 0.82 x Veh level
N-palmitoyl valine Direction (relative to Veh) [8]: ↑
N-palmitoyl valine Magnitude (x Veh level) [8]: 1.40 x Veh level
N-stearoyl valine Direction (relative to Veh) [8]: ↑
N-stearoyl valine Magnitude (x Veh level) [8]: 1.41 x Veh level
PGE2 Direction (relative to Veh) [8]: ↑
PGE2 Magnitude (x Veh level) [8]: 1.15 x Veh level
2-arachidonoyl glycerol level [9]: 3.96E-10
2-linoleoyl glycerol level [9]: 1.58E-10
2-oleoyl glycerol level [9]: 1.53E-09
2-palmitoyl glycerol level [9]: 2.82E-10
6-ketoPGF1α level [9]: 1.2E-11
11-OH-THC level [9]: BDL
11-nor-9-carboxyTHC level [9]: BDL
Arachidonic acid level [9]: 1.65E-09
Cannabidiol level [9]: BDL
Linoleic acid level [9]: 5.88E-10
N- stearoyl valine level [9]: 5.2E-13
N-arachidonoyl serine level [9]: 3.04E-12
N-arachidonoyl taurine level [9]: 1.88E-11
N-arachidonoyl tryptophan level [9]: BDL
N-arachidonoyl tyrosine level [9]: 6.37E-13
N-docosahexaenoyl serine level [9]: 1.42E-11
N-docosahexaenoyl tyrosine level [9]: 8.89E-13
N-docosahexaenoyl valine level [9]: 1.82E-13
N-linoleoyl serine level [9]: 2.61E-11
N-linoleoyl tryptophan level [9]: BDL
N-linoleoyl tyrosine level [9]: BDL
N-nervonoyl valine level [9]: BDL
N-oleoyl proline level [9]: 6.88E-13
N-oleoyl serine level [9]: 1.44E-10
N-oleoyl tyrosine level [9]: 5.15E-13
N-oleoyl valine level [9]: 5.41E-13
N-palmitoyl proline level [9]: 9.02E-13
N-palmitoyl serine level [9]: 3.95E-11
N-palmitoyl tryptophan level [9]: 2.02E-13
N-palmitoyl tyrosine level [9]: 8.2E-13
N-palmitoyl valine level [9]: 1.16E-12
N-stearoyl proline level [9]: 4.63E-13
N-stearoyl serine level [9]: 2.01E-11
N-stearoyl tryptophan level [9]: 2.84E-13
N-stearoyl tyrosine level [9]: 8.52E-14
Oleic acid level [9]: 1.63E-09
PGE2 level [9]: 2.93E-10
PGF2α level [9]: 2.4E-10
PhosphoLEA level [9]: 2.06E-11
THC level [9]: BDL
2-arachidonoyl glycerol level, Mean [10]: 2.23E-10
2-linoleoyl glycerol level, Mean [10]: 2.39E-10
2-oleoyl glycerol level, Mean [10]: 3.85E-09
2-palmitoyl glycerol level, Mean [10]: 8.83E-10
6-ketoPGF1α level, Mean [10]: 1.35E-11
11-OH-THC level, Mean [10]: BDL
11-nor-9-carboxyTHC level, Mean [10]: BDL
Arachidonic acid level, Mean [10]: 1.44E-10
Cannabidiol level, Mean [10]: BDL
Linoleic acid level, Mean [10]: 1.4E-10
N- stearoyl valine level, Mean [10]: 8.37E-14
N-arachidonoyl GABA level, Mean [10]: 3.67E-12
N-arachidonoyl alanine level, Mean [10]: 1.22E-13
N-arachidonoyl dopamine level, Mean [10]: BDL
N-arachidonoyl ethanolamine level, Mean [10]: 2.44E-11
